Assays:
[1] = test system: human embryonic stem cells (hESCs); assay: bFGF dose-response, maintenance of undifferentiated hESCs under feeder-free condition on laminin/collagen-coated plates; format: cell-based
Procedure: (c) bFGF dose-response assays—assessing maintenance of the undifferentiated state.
To discover the minimal essential conditions needed to support the long-term growth of undifferentiated hESCs, morphological analysis was used to assess the developmental stage of hESCs at different times. For these analyses hESCs were grown in a 6- or 12-well plate to maturation (day 6 or 7 after seeding) before being fixed and visualized under a phase contrast microscope. Cellular immunofluorescence was also employed to assess the state of differentiation of hESCs. To perform these studies, hESCs were grown to maturation (day 6 or 7 after seeding) in a 12- or 24-well plate with a round cover slide in the bottom of each well. The cells were then fixed with 4% paraformaldehyde and blocked in PBS buffer containing 0.2% Triton X-100 and 2% BSA. Next, the cells were incubated with a primary antibody (Oct-4, SSEA-1, SSEA-3, SSEA-4, Tra-1-60, Tra-1-81, alkaline phosphatase, Myc, Map-2, Nkx2.5, bFGF (Santa Cruz Biotechnology, Inc.; Santa Cruz, Calif., world wide web: scbt.com) nestin, tyrosine hydroxylase (Chemicon International, Temecula, Calif., world wide web: chemicon.com), beta-tubulin (Sigma), p300, Tip60, or acetylated H4 (K5, 8, 12, 16) (Upstate Biotechnology, Lake Placid, N.Y., world wide web: upstate.com) in wash buffer (0.1% Triton X-100 in PBS) at 4° C. overnight, and then with secondary antibody (Molecular Probe; Eugene, Oreg., world wide web: probes.com) in wash buffer at room temperature for 45 minutes. After further staining with DAPI, cells were mounted onto a microscope slide and visualized under an immunofluorescence and deconvolution microscope. The state of differentiation of hESC was further assessed by generating (via lentiviral-mediated transduction) hESCs carrying a reporter gene (enhanced green fluorescence protein (EGFP)) under control of the Oct-4 promoter. Using these transfected hESCs (carrying Oct-4 driven EGFP), the undifferentiated state of hESCs can be visualized by green fluorescence (indicating Oct-4 expression).
The mechanism by which MEF-conditioned media exerts these effects is unknown, and it could involve the presence of growth factors, removal of toxic factors from the medium, or both. Based on the discovery that bFGF (at relatively high concentrations) promotes undifferentiated growth of hESCs on HFFs, it was decided to test whether bFGF promotes undifferentiated growth of hESCs on matrix proteins in the absence of feeder cells. Gelatin pre-coated plates were incubated with a commercially-available combination of laminin and collagen known as Matrigel (Growth factor reduced, Becton Dickinson) [diluted 1:30 in cold DMEM/F-12] at 4° C. overnight. The growth of hESCs on laminin/collagen-coated plates in the defined hESC media containing 20 ng/ml bFGF was examined. […]
To further assess the effect of bFGF on hESC undifferentiated growth, short-term proliferation assays of hESCs maintained under the feeder-free condition in the defined hESC media containing 0, 4, 10, 20, 30, or 50 ng/ml bFGF were performed. […] To further affirm the role of bFGF on hESC undifferentiated growth, hESCs carrying a reporter gene (enhanced green fluorescence protein [EGFP]) under control of Oct-4 promoter were generated (via lentiviral-mediated transduction).

[2] = test system: Oct-4 expression in hESCs; assay: hESCs carrying Oct-4 promoter-driven EGFP reporter, with or without bFGF; format: cell-based, human
From the text: (d) bFGF is critical for sustaining undifferentiated growth of hESCs carrying an Oct-4-driven reporter gene. hESCs carrying a reporter gene (enhanced green fluorescence protein [EGFP]) that is under control of the Oct-4 promoter was generated via lentiviral-mediated transduction.
FIG. 6: (a) Growth of hESCs carrying an Oct-4-driven reporter gene in the presence or absence of bFGF. hESCs carrying a reporter gene (enhanced green fluorescence protein [EGFP]) that is under control of the Oct-4 promoter was generated via lentiviral-mediated transduction. Transfected hESCs were cultivated under the feeder-free conditions in the defined media with bFGF (20 ng/ml) or without bFGF for 4 days. […] The cells were further dissociated and analyzed on a BD FacsSort instrument after staining with 7-aminoactinomycin D (7-AAD) to eliminate the dead cells [E]. With FACS-sorting, significant increases (200%) of Oct4-EGFP negative cells were observed after withdrawal bFGF for 4 days. (Note the actual percentage of Oct4-EGFP negative cells in the absence of bFGF should be even higher, because it takes around 2 days for the green fluorescence to be completely quenched after Oct-4 expression has been turned off.) (b) bFGF concentration in MEF-CM. Growth-arrested MEFs were obtained from Specialty Media (Phillipsburg, N.J.). […] 50 μl of concentrates was loaded onto a SDS/PAGE gel and analyzed by Western blot. […]
To discover the minimal essential conditions needed to support the long-term growth of undifferentiated hESCs, morphological analysis was used to assess the developmental stage of hESCs at different times. […] The state of differentiation of hESC was further assessed by generating (via lentiviral-mediated transduction) hESCs carrying a reporter gene (enhanced green fluorescence protein (EGFP)) under control of the Oct-4 promoter. Using these transfected hESCs (carrying Oct-4 driven EGFP), the undifferentiated state of hESCs can be visualized by green fluorescence (indicating Oct-4 expression). […]

In the case of “bFGF: basic fibroblast growth factor, growth factor added to the defined hESC media”, the “hESC colonies with completely differentiated morphology that ceased expressing Oct-4” value ([1]; absence of bFGF, laminin/collagen, first passage) is reported as “approximately 80%”, the “percentage of undifferentiated hESC colonies at higher dosages” value ([1]; bFGF 30 and 50 ng/ml versus 20 ng/ml, 7 days) is reported as “slightly decreased percentages of undifferentiated hESC colonies” and the “hESC colonies highly compact and undifferentiated (morphology, Oct-4, SSEA-4, Tra-1-60, Tra-1-81 expression)” value ([1]; defined hESC media containing 20 ng/ml bFGF, laminin/collagen-coated plates, each passage, day 7) is reported as “Over 80%”. For the same substance, the “differentiation rate of hESCs” value ([1]; low concentration of bFGF (4 ng/ml), feeder-free, defined media) was “high differentiation rates”, the “bFGF concentration maintaining the optimal proportion of undifferentiated hESCs, comparable to MEF-CM” value ([1]; tested 0, 4, 10, 20, 30, 50 ng/ml, 7 days) was 20 ng/mL and the “cells inside colonies with differentiated morphology that ceased Oct-4 expression” value ([2]; absence of bFGF, first passage (day 7 after seeding)) was “more than 70%”. The “morphology and Oct-4-driven EGFP fluorescence of hESC colonies” value ([2]; defined media containing 20 ng/ml bFGF, feeder-free) was “undifferentiated morphology and strong green fluorescence” and the “increase of Oct4-EGFP negative cells by FACS” value ([2]; withdrawal of bFGF for 4 days) was 200%.

Source: US20080241919A1, “Defined media for pluripotent stem cell culture” (The Burnham Institute of Medical Research, priority 2003, published 2008)
